This is an account of results in ChEMBL document CHEMBL5303762, “Data for DCP probe BI-8668” (2023).

The target of series [1] is T1, Muscarinic acetylcholine receptor M2 (Homo sapiens) (UniProt P08172).
T1 sequence (whole entry): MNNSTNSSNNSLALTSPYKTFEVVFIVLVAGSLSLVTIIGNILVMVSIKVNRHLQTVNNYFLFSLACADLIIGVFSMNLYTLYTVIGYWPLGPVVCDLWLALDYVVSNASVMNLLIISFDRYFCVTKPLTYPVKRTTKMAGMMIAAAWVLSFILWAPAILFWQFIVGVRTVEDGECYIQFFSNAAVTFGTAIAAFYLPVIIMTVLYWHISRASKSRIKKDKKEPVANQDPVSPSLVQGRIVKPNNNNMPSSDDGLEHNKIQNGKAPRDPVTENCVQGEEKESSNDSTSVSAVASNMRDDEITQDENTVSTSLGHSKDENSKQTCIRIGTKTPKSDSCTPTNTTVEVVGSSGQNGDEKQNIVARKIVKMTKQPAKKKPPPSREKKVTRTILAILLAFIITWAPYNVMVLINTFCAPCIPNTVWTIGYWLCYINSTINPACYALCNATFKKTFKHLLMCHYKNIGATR
In words: M2/H Eurofins SafetyScreen44 (BI). Particulars: filed as antagonist, Compound concentration 10.0 uM; call rule not given here.

In series [2] the target is T2, Alpha-1A adrenergic receptor (Homo sapiens) (UniProt P35348).
T2 sequence (whole entry): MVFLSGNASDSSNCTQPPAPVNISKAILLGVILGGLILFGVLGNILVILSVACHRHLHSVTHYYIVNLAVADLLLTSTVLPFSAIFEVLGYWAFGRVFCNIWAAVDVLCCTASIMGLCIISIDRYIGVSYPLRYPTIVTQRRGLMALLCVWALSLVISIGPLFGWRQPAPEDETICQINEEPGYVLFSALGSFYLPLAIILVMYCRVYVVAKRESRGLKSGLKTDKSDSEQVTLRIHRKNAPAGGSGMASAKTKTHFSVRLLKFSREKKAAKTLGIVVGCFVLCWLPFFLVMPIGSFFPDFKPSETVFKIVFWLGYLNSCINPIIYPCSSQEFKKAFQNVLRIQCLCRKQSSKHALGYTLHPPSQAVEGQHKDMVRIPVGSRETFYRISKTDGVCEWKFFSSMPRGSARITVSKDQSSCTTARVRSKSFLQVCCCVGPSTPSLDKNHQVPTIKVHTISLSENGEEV
In words: ALPHA1AH_ANTAG Eurofins SafetyScreen44 (BI). Particulars: filed as antagonist, Compound concentration 10.0 uM.

In series [3] the target is voltage-gated sodium channel (site 2) (Rattus norvegicus, UniProt F1LQQ7+O08562+O88420+O88457+P04774+P04775+P08104+P15389+P15390+Q62968). In words: NA+/SITE2/R Eurofins SafetyScreen44 (BI). Type of series: protein assay. The following applies: compound concentration 10 uM, read-out: % Ctrl.
Series [4] deals with L-type calcium channel alpha-1C (dihydropyridine site) (Rattus norvegicus, UniProt P22002). In words: CA+/DHPSI/R Eurofins SafetyScreen44 (BI). The following applies: compound concentration 10 uM, read-out: % Ctrl.
A further series deals with hERG (KCNH2) (Homo sapiens, UniProt Q12809). In words: HERG_DOFETILIDE Eurofins SafetyScreen44 (BI). The following applies: probe dofetilide, compound concentration 10 uM, read-out: % Ctrl.
Series [5] has as its target 5-hydroxytryptamine receptor 2B (Homo sapiens) (UniProt P41595). In words: 5HT2B/H AG Eurofins SafetyScreen44 (BI). The following applies: filed as agonist, Compound concentration 10.0 uM.
The target of series [6] is Delta-type opioid receptor (Homo sapiens) (UniProt P41143). In words: DELTA2/H Eurofins SafetyScreen44 (BI). Particulars: Compound concentration 10.0 uM.
Delta-type opioid receptor (Homo sapiens), sequence (P41143 whole entry): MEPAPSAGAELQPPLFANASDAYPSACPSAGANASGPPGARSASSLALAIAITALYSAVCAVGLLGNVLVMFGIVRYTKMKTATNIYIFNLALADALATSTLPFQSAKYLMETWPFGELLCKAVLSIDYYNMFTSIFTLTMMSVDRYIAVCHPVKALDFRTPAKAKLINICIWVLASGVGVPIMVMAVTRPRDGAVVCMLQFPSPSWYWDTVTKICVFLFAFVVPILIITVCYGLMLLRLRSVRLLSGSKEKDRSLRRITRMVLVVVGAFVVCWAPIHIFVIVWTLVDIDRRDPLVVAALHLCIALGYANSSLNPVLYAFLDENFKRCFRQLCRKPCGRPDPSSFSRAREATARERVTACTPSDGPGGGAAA
In series [7] the target is Tyrosine-protein kinase Lck (Homo sapiens) (UniProt P06239). In words: LCK_CE Eurofins SafetyScreen44 (BI). Particulars: Compound concentration 10.0 uM.
In series [8] the target is Mu-type opioid receptor (Homo sapiens) (UniProt P35372). In words: MU/H Eurofins SafetyScreen44 (BI). Particulars: Compound concentration 10.0 uM.
Mu-type opioid receptor (Homo sapiens), sequence (P35372 whole entry): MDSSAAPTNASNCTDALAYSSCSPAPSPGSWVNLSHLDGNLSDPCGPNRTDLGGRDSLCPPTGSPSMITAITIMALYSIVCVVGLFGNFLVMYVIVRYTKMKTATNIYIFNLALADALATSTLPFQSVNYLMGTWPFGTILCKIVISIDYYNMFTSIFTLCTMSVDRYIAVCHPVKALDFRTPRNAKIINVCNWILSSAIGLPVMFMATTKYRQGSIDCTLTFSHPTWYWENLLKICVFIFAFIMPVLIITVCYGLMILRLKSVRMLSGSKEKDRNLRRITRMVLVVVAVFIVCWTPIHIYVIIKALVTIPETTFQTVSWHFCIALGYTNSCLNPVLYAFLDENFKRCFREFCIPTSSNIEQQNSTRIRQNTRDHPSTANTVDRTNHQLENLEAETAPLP
Series [9] deals with Beta-1 adrenergic receptor (Homo sapiens) (UniProt P08588). In words: BETA1/HUM Eurofins SafetyScreen44 (BI). The following applies: Compound concentration 10.0 uM.
Beta-1 adrenergic receptor (Homo sapiens), sequence (P08588 whole entry, looked up): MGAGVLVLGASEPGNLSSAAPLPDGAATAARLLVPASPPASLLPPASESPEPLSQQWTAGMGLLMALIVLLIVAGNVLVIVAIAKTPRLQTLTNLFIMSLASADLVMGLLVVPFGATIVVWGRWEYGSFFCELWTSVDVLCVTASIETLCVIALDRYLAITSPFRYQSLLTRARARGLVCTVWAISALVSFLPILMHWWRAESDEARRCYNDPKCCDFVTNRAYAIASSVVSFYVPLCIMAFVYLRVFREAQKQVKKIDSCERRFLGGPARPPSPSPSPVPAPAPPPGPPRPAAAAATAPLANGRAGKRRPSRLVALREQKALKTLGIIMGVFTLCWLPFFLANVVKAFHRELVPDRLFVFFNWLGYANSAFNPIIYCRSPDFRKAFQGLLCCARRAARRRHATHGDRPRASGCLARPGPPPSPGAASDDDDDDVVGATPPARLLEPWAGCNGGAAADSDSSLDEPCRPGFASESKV
The target in series [10] is Endothelin-1 receptor (Homo sapiens) (UniProt P25101). In words: ETA/H Eurofins SafetyScreen44 (BI). Particulars: Compound concentration 10.0 uM.
Endothelin-1 receptor (Homo sapiens), sequence (P25101 whole entry): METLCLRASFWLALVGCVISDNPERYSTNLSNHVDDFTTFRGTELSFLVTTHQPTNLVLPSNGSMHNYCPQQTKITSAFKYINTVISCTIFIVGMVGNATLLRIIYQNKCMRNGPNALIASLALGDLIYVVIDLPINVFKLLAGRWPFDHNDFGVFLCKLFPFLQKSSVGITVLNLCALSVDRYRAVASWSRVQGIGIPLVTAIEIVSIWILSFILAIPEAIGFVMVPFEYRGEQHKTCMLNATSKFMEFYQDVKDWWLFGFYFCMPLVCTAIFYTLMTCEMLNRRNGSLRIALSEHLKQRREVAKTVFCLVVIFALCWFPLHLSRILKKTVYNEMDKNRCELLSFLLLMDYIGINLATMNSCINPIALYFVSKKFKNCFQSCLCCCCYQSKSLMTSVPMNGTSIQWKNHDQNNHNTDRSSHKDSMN
Series [11] concerns the target cGMP-inhibited 3',5'-cyclic phosphodiesterase 3A (Homo sapiens) (UniProt Q14432). In words: PDE3A Eurofins SafetyScreen44 (BI). Particulars: Compound concentration 10.0 uM.
Series [12] deals with T3, 5-hydroxytryptamine receptor 3A (Homo sapiens) (UniProt P46098).
T3 sequence (whole entry): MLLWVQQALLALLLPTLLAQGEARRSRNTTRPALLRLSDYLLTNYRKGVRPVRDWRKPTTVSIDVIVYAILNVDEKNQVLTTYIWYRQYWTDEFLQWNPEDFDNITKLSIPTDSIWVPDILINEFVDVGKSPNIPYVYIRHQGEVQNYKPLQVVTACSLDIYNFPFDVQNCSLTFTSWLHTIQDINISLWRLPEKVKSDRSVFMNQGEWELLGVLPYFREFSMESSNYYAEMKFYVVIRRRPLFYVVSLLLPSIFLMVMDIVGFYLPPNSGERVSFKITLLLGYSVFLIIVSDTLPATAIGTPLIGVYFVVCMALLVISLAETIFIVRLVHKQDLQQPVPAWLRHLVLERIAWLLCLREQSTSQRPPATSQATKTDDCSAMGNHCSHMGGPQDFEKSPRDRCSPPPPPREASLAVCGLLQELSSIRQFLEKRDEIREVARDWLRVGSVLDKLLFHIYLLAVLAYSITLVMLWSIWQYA
In words: 5HT3/H Eurofins SafetyScreen44 (BI). The following applies: Compound concentration 10.0 uM.

In series [13] the target is D(1A) dopamine receptor (Homo sapiens) (UniProt P21728). In words: D1/H Eurofins SafetyScreen44 (BI). Particulars: filed as antagonist, Compound concentration 10.0 uM.
In series [14] the target is Glutamate NMDA receptor (Rattus norvegicus) (UniProt P35439+Q00959+Q00960+Q00961+Q62645+Q8VHN2+Q9R1M7). In words: NMDA/R Eurofins SafetyScreen44 (BI). Format: protein-complex assay. The following applies: Compound concentration 10.0 uM.
Series [15] deals with Androgen receptor (Homo sapiens) (UniProt P10275). In words: ANDROGEN/H Eurofins SafetyScreen44 (BI). Particulars: Compound concentration 10.0 uM.
The target of series [16] is Adenosine receptor A2a (Homo sapiens) (UniProt P29274). In words: A2A/H Eurofins SafetyScreen44 (BI). The following applies: filed as antagonist, Compound concentration 10.0 uM.
Adenosine receptor A2a (Homo sapiens), sequence (P29274 whole entry): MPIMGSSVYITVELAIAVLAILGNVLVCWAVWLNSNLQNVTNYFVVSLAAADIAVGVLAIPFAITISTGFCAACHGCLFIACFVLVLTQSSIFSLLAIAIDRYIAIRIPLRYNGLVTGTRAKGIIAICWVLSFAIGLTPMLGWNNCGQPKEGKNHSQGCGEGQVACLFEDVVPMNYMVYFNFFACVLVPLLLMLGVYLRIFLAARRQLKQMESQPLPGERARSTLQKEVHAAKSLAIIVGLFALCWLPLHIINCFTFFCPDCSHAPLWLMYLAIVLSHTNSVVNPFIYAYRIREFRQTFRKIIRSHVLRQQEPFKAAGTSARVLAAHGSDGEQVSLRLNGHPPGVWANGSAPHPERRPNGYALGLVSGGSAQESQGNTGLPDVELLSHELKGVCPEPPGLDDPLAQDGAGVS
Series [17] has as its target GABA-A receptor; anion channel (Rattus norvegicus) (UniProt O09028+P15431+P18506+P18508+P19969+P20236+P23574+P23576+P28471+P28473+P30191+P62813+P63079+P63138+Q91ZM7+Q9ES14). In words: BZD/CENTR/R Eurofins SafetyScreen44 (BI). Format: protein-complex assay. The following applies: Compound concentration 10.0 uM.
In series [18] the target is Cannabinoid receptor 1 (Homo sapiens) (UniProt P21554). In words: CB1(HU)_AGON Eurofins SafetyScreen44 (BI). Particulars: filed as agonist, Compound concentration 10.0 uM.
Series [19] deals with 5-hydroxytryptamine receptor 2B (Homo sapiens) (UniProt P41595). The following applies: Compound concentration 10.0 uM.
5-hydroxytryptamine receptor 2B (Homo sapiens), sequence (P41595 whole entry): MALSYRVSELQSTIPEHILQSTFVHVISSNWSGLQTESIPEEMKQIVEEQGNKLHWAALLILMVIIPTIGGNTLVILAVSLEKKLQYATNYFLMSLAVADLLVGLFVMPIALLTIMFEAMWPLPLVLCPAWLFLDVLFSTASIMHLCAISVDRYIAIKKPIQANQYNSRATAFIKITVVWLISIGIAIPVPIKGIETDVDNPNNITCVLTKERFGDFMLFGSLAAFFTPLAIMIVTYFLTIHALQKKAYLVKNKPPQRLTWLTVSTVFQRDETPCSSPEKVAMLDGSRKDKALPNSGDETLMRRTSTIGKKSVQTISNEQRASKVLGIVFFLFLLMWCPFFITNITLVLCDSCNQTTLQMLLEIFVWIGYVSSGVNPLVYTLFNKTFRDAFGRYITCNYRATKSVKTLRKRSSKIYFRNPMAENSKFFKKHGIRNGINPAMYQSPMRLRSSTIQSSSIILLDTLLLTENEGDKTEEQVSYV
The target of series [20] is 5-hydroxytryptamine receptor 2C (Homo sapiens) (UniProt P28335). Particulars: Compound concentration 10.0 uM.
5-hydroxytryptamine receptor 2C (Homo sapiens), sequence (P28335 whole entry): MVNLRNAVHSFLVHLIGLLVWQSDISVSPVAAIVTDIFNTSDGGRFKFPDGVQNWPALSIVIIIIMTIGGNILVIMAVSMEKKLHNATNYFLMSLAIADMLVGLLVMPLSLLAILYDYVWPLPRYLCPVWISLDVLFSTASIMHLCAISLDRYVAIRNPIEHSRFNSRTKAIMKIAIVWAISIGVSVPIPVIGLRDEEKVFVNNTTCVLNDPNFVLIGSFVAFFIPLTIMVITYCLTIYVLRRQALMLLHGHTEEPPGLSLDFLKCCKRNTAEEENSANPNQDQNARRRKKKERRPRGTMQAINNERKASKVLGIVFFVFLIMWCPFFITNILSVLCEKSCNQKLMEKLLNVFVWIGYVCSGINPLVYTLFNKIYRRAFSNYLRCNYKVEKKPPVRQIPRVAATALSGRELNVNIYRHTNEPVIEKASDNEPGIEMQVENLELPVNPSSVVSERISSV
The target of series [21] is Mu-type opioid receptor (Homo sapiens) (UniProt P35372). Particulars: Compound concentration 10.0 uM.
Series [22] has as its target Histamine H1 receptor (Homo sapiens) (UniProt P35367). Particulars: Compound concentration 10.0 uM.

cGMP-inhibited 3',5'-cyclic phosphodiesterase 3A (Homo sapiens), sequence (Q14432 whole entry): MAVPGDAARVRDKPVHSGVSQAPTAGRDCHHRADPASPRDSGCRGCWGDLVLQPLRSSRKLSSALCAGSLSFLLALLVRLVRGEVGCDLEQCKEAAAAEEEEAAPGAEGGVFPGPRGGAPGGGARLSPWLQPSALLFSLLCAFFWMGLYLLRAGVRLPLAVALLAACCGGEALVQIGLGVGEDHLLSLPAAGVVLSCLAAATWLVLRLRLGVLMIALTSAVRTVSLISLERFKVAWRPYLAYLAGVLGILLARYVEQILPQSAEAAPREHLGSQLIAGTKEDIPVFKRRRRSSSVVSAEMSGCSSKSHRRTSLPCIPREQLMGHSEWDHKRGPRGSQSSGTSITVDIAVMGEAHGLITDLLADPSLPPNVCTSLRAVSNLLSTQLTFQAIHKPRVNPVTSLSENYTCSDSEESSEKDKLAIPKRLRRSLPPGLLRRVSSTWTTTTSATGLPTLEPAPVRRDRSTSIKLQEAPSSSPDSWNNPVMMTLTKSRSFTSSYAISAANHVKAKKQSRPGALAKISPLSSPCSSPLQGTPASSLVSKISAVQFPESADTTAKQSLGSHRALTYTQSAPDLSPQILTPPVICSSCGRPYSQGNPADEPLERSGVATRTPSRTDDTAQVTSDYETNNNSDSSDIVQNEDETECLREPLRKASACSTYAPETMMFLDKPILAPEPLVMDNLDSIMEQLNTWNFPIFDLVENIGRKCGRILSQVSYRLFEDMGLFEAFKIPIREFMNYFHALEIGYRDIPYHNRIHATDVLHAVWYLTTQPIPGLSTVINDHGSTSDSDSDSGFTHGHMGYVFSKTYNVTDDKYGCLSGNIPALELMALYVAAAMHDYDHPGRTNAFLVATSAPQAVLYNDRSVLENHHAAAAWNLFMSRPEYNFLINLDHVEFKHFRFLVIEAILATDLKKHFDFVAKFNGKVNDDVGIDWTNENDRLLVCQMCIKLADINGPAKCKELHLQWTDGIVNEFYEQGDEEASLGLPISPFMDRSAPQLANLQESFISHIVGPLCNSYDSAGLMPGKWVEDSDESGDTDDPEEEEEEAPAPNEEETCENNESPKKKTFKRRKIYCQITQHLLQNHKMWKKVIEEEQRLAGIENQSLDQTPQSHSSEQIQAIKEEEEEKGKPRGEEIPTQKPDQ
Histamine H1 receptor (Homo sapiens), sequence (P35367 whole entry): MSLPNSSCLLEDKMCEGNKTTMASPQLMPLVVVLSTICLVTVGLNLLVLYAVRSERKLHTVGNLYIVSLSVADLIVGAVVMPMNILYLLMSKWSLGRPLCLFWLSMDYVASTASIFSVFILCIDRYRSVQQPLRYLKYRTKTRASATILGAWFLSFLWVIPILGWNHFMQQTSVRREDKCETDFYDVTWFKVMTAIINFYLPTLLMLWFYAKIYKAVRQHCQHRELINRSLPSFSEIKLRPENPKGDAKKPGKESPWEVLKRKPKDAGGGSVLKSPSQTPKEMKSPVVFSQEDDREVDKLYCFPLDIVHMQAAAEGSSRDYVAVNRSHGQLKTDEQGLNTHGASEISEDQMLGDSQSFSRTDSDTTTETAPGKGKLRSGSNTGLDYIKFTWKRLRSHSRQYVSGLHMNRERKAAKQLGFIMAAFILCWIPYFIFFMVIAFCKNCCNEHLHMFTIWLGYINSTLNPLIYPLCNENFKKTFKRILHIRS

As to `CCn1c(CNC(=O)c2ncc(C)nc2N)[n+](CC)c2ccc(C(=O)N(C)CN(C)C)cc21`, the residual activity is 41% in series [1]; 63% in [2]; 61% in [5]; 97% in series [6]; 60% in series [7]; 95% in series [8]. For the same compound, the residual activity in series [9] was 105%; in [10] it was 104%; in series [11], 87%; in series [12], 99%; in series [13], 102%; in series [14], 100%. Besides, the residual activity in [15] was 99%; in [16], 105%; in series [17], 96%; in [18], 111%. The activity at 10 µM was 87% (not active) in [3], 87% (not active) in series [4] and 81% (not active) on hERG (KCNH2).
Take `CCn1c(CNC(=O)c2nc(Cl)cnc2N)[n+](CC)c2ccc(C(=O)N(C)CCN(C)C)cc21`: the residual activity in series [1] was 36%; in series [2] it was 45%; in series [5], 92%; in series [6], 95%; in [7], 95%; in series [8], 95%. For the same compound, the residual activity in series [9] was 97%; in series [10] it was 100%; in series [11], 100%; in series [12] it was 101%; in series [13], 103%; in series [14], 105%. Further, the residual activity in series [15] is 106%; in series [16], 110%; in series [17], 130%. For the same compound, the activity at 10 µM in series [3] was 66% (not active); in series [4], 89% (not active); on hERG (KCNH2), 91% (not active). Besides, the inhibition in series [19] was 7.03%; in [20], 1.01%; in series [21], 11%; in series [22] it was -1.28%.
